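Protocol summary: plate cells (96-well), add compound at 5 concentrations, incubate 48 h, interpolate endpoints linearly. The concentration for 50% growth inhibition is given as GI50. TGI: concentration producing complete growth inhibition.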
Columns and labels:
Assay in all cases: NCI-60 cell line screen, 48 h
COLO 205 colon = system: COLO 205 colon
SNB-75 CNS = system: SNB-75 CNS
M14 melanoma = system: M14 melanoma
SF-295 CNS = system: SF-295 CNS
786-0 renal = system: 786-0 renal
IGROV1 ovarian = system: IGROV1 ovarian
A498 renal = system: A498 renal
UO-31 renal = system: UO-31 renal
K-562 leukemia = system: K-562 leukemia
MALME-3M melanoma = system: MALME-3M melanoma

Q: What does the source list for `CCCCCCNC(=O)C1=C(C)NC(C)=C(C(=O)NCCCCCC)C1`?
A: TGI (COLO 205 colon): > 100 µM; TGI (SNB-75 CNS): > 100 µM; TGI (M14 melanoma): > 100 µM; TGI (SF-295 CNS): > 100 µM; TGI (786-0 renal): > 100 µM; TGI (IGROV1 ovarian): > 100 µM; TGI (A498 renal): > 100 µM; TGI (UO-31 renal): > 100 µM; TGI (K-562 leukemia): > 100 µM

Q: `COc1ccc(/C=C/c2cc(OC)c(OC)c(OC)c2)cc1NC(=O)/C=C/c1ccc(F)cc1` was tested. Which GI50 (MALME-3M melanoma) did it give?
A: 3.87 µM

Q: And the TGI (MALME-3M melanoma)?
A: > 100 µM

Q: What about the GI50 (COLO 205 colon) of the same molecule?
A: 2.43 µM

Q: And the TGI (COLO 205 colon)?
A: 6.71 µM

Q: And the GI50 (M14 melanoma)?
A: 2.81 µM

Q: And the TGI (M14 melanoma)?
A: > 100 µM

Q: What about the GI50 (SF-295 CNS) of the same molecule?
A: 1.57 µM

Q: What about the TGI (SF-295 CNS) of the same molecule?
A: 64.4 µM

Q: What about the GI50 (786-0 renal) of the same molecule?
A: 4.29 µM

Q: What about the TGI (786-0 renal) of the same molecule?
A: > 100 µM

Q: And the GI50 (IGROV1 ovarian)?
A: 5.71 µM

Q: And the TGI (IGROV1 ovarian)?
A: > 100 µM

Q: And the GI50 (A498 renal)?
A: 0.0352 µM

Q: What about the GI50 (UO-31 renal) of the same molecule?
A: 2.3 µM

Q: What about the TGI (UO-31 renal) of the same molecule?
A: > 100 µM

Q: What about the GI50 (K-562 leukemia) of the same molecule?
A: 1.44 µM

Q: And the TGI (K-562 leukemia)?
A: > 100 µM

Q: Which TGI (MALME-3M melanoma) does the source give for `Cc1nn(C(=O)c2ccccc2O)c2c1C(c1ccccc1)SC(N)=N2` (stereo unspecified) here?
A: > 10 µM

Q: And the TGI (COLO 205 colon)?
A: > 10 µM

Q: And the TGI (M14 melanoma)?
A: > 10 µM

Q: What about the TGI (SF-295 CNS) of the same molecule?
A: > 10 µM

Q: And the TGI (786-0 renal)?
A: > 10 µM

Q: And the TGI (IGROV1 ovarian)?
A: 6.96 µM

Q: What about the TGI (K-562 leukemia) of the same molecule?
A: 4.76 µM

Q: What does the source list for `Nc1ccc(C(=O)N/C(=C\C=C\c2ccco2)c2nc3[nH]c(=S)[nH]c(=O)c3[nH]2)cc1`?
A: TGI (MALME-3M melanoma): > 100 µM; TGI (COLO 205 colon): > 100 µM; TGI (M14 melanoma): > 100 µM; TGI (SF-295 CNS): > 100 µM; TGI (786-0 renal): > 100 µM; TGI (IGROV1 ovarian): > 100 µM; TGI (UO-31 renal): > 100 µM; TGI (K-562 leukemia): > 100 µM

Q: For `COc1cc(-c2cc(=O)c3cc4c(cc3[nH]2)OCO4)cc(OC)c1OC`, which TGI (MALME-3M melanoma) is on record?
A: > 100 µM

Q: And the TGI (COLO 205 colon)?
A: > 100 µM

Q: What about the TGI (SNB-75 CNS) of the same molecule?
A: > 100 µM

Q: What about the TGI (M14 melanoma) of the same molecule?
A: > 100 µM

Q: What about the GI50 (SF-295 CNS) of the same molecule?
A: 32 µM

Q: And the TGI (SF-295 CNS)?
A: 97.9 µM

Q: What about the TGI (786-0 renal) of the same molecule?
A: > 100 µM

Q: And the TGI (IGROV1 ovarian)?
A: > 100 µM

Q: What about the TGI (UO-31 renal) of the same molecule?
A: > 100 µM

Q: And the TGI (K-562 leukemia)?
A: > 100 µM

Q: Which results are given for `COC1=CC23C=CC1[C@@H](c1ccccc1)C2=C(C)C(=O)N3C(=O)NC1CCCCC1` (stereo partly specified)?
A: TGI (SNB-75 CNS): > 100 µM; TGI (M14 melanoma): 38.8 µM; TGI (SF-295 CNS): 53.7 µM; TGI (786-0 renal): 32.4 µM; TGI (IGROV1 ovarian): > 100 µM; TGI (A498 renal): 64.1 µM; TGI (UO-31 renal): 54.7 µM; TGI (K-562 leukemia): > 100 µM

Q: `c1cnc2c(c1)-n1cccc1C1(CCSCC1)NN2` was tested. Which TGI (MALME-3M melanoma) did it give?
A: > 100 µM

Q: What about the TGI (COLO 205 colon) of the same molecule?
A: > 100 µM

Q: What about the TGI (SNB-75 CNS) of the same molecule?
A: > 100 µM

Q: What about the TGI (M14 melanoma) of the same molecule?
A: > 100 µM

Q: What about the TGI (SF-295 CNS) of the same molecule?
A: > 100 µM

Q: What about the TGI (786-0 renal) of the same molecule?
A: > 100 µM

Q: What about the TGI (UO-31 renal) of the same molecule?
A: 94.1 µM

Q: What about the TGI (K-562 leukemia) of the same molecule?
A: > 100 µM

Q: `Cc1cc2c(CC(=O)O)[nH]nc2c(C(=O)O)c1C` was tested. Which TGI (MALME-3M melanoma) did it give?
A: > 100 µM

Q: And the TGI (COLO 205 colon)?
A: > 100 µM

Q: What about the TGI (SNB-75 CNS) of the same molecule?
A: > 100 µM

Q: What about the TGI (SF-295 CNS) of the same molecule?
A: > 100 µM

Q: What about the TGI (786-0 renal) of the same molecule?
A: > 100 µM

Q: And the TGI (UO-31 renal)?
A: > 100 µM

Q: `CCN(CC)CCCCC1CCN(CC(=O)N2CC(C)C(=O)Nc3ccccc32)CC1` (stereo unspecified) was tested. Which TGI (MALME-3M melanoma) did it give?
A: > 100 µM

Q: What about the TGI (COLO 205 colon) of the same molecule?
A: > 100 µM

Q: What about the TGI (M14 melanoma) of the same molecule?
A: > 100 µM

Q: And the TGI (SF-295 CNS)?
A: > 100 µM

Q: What about the TGI (786-0 renal) of the same molecule?
A: > 100 µM

Q: And the TGI (IGROV1 ovarian)?
A: > 100 µM

Q: And the TGI (A498 renal)?
A: > 100 µM

Q: And the TGI (UO-31 renal)?
A: > 100 µM

Q: What about the TGI (K-562 leukemia) of the same molecule?
A: > 100 µM

Q: Which TGI (MALME-3M melanoma) does the source give for `S=C(Nc1ccc(-c2nc3ccccc3[nH]2)cc1)NC1CCCCC1` here?
A: 51.9 µM

Q: And the TGI (COLO 205 colon)?
A: > 100 µM

Q: And the GI50 (SNB-75 CNS)?
A: 25.1 µM

Q: And the TGI (SNB-75 CNS)?
A: > 100 µM

Q: What about the GI50 (M14 melanoma) of the same molecule?
A: 22.6 µM

Q: And the TGI (M14 melanoma)?
A: 53.3 µM

Q: And the GI50 (SF-295 CNS)?
A: 7.06 µM

Q: And the TGI (SF-295 CNS)?
A: 30.3 µM

Q: And the GI50 (786-0 renal)?
A: 33.2 µM

Q: What about the GI50 (IGROV1 ovarian) of the same molecule?
A: 35.2 µM

Q: What about the GI50 (UO-31 renal) of the same molecule?
A: 21.3 µM

Q: What about the TGI (UO-31 renal) of the same molecule?
A: 71.6 µM

Q: And the GI50 (K-562 leukemia)?
A: 31.5 µM

Q: For `Cc1nc2ccc(C(F)(F)F)cc2nc1Nc1ccc(Cl)c(Cl)c1`, which TGI (MALME-3M melanoma) is on record?
A: 35.7 µM

Q: What about the TGI (COLO 205 colon) of the same molecule?
A: 11.9 µM

Q: What about the TGI (SF-295 CNS) of the same molecule?
A: 11.8 µM

Q: And the TGI (786-0 renal)?
A: 16.1 µM

Q: And the TGI (UO-31 renal)?
A: 24.6 µM

Q: Which results are given for `CCN(CC)CCn1c2c3ccccc3ccc2c2oc(=O)c3ccccc3c21`?
A: TGI (MALME-3M melanoma): > 100 µM; TGI (COLO 205 colon): > 100 µM; TGI (SNB-75 CNS): 42.8 µM; TGI (M14 melanoma): > 100 µM; TGI (SF-295 CNS): > 100 µM; TGI (786-0 renal): 58.5 µM; TGI (IGROV1 ovarian): > 100 µM; TGI (UO-31 renal): > 100 µM; TGI (K-562 leukemia): > 100 µM

Q: `O=[N+]([O-])c1c(/C=N/Nc2ccccc2)oc(-c2ccc3c(c2)OCO3)c1-c1ccc2c(c1)OCO2` was tested. Which TGI (MALME-3M melanoma) did it give?
A: > 100 µM

Q: And the TGI (COLO 205 colon)?
A: > 100 µM

Q: What about the TGI (SNB-75 CNS) of the same molecule?
A: > 100 µM

Q: What about the TGI (M14 melanoma) of the same molecule?
A: > 100 µM

Q: What about the TGI (SF-295 CNS) of the same molecule?
A: > 100 µM

Q: And the TGI (786-0 renal)?
A: > 100 µM

Q: And the TGI (IGROV1 ovarian)?
A: > 100 µM

Q: What about the TGI (K-562 leukemia) of the same molecule?
A: 14.5 µM

Q: How did the TGI (MALME-3M melanoma) turn out when `Cc1c(CCCl)c(=O)n2c([nH]c3ccccc32)c1C#N` was run?
A: 2.02 µM

Q: And the TGI (COLO 205 colon)?
A: 0.28 µM

Q: And the TGI (SNB-75 CNS)?
A: 2.78 µM

Q: And the TGI (M14 melanoma)?
A: 2.99 µM

Q: What about the TGI (SF-295 CNS) of the same molecule?
A: 3.48 µM

Q: And the TGI (786-0 renal)?
A: 2.84 µM

Q: And the TGI (IGROV1 ovarian)?
A: 3.4 µM

Q: And the TGI (UO-31 renal)?
A: 3.51 µM

Q: What about the TGI (K-562 leukemia) of the same molecule?
A: > 10 µM

Q: Which results are given for `CC1(C)C=CC[C@]2(C)[C@H]3CC[C@@H]4[C@H]5[C@H](C(=O)/C=C/c6cccnc6)CC[C@]5(CO)CC[C@@]4(C)[C@]3(C)CC[C@@H]12`?
A: GI50 (MALME-3M melanoma): 1.38 µM; TGI (MALME-3M melanoma): 2.8 µM; GI50 (COLO 205 colon): 1.69 µM; TGI (COLO 205 colon): 3.69 µM; GI50 (SF-295 CNS): 1.15 µM; TGI (SF-295 CNS): 2.42 µM; GI50 (786-0 renal): 1.64 µM; TGI (786-0 renal): 3.15 µM; GI50 (IGROV1 ovarian): 1.31 µM; TGI (IGROV1 ovarian): 2.77 µM; GI50 (A498 renal): 1.37 µM; TGI (A498 renal): 2.72 µM; GI50 (UO-31 renal): 1.21 µM; TGI (UO-31 renal): 2.45 µM

Q: `CCCCC#COP(=O)(OCC)OCC` was tested. Which TGI (MALME-3M melanoma) did it give?
A: > 100 µM

Q: What about the TGI (COLO 205 colon) of the same molecule?
A: > 100 µM

Q: And the TGI (M14 melanoma)?
A: > 100 µM

Q: What about the TGI (SF-295 CNS) of the same molecule?
A: > 100 µM

Q: And the TGI (786-0 renal)?
A: > 100 µM

Q: What about the TGI (IGROV1 ovarian) of the same molecule?
A: > 100 µM

Q: What about the TGI (A498 renal) of the same molecule?
A: > 100 µM

Q: What about the TGI (UO-31 renal) of the same molecule?
A: > 100 µM

Q: What does the source list for `CCCC(=O)c1c(NOC2OC(COC(C)=O)C(OC(C)=O)C(OC(C)=O)C2OC(C)=O)nc(OC)n(C)c1=O` (stereo unspecified)?
A: TGI (COLO 205 colon): > 100 µM; TGI (SNB-75 CNS): > 100 µM; TGI (M14 melanoma): > 100 µM; TGI (SF-295 CNS): > 100 µM; TGI (786-0 renal): > 100 µM; TGI (IGROV1 ovarian): > 100 µM; TGI (UO-31 renal): 89 µM; TGI (K-562 leukemia): > 100 µM

— PubChem BioAssay (NCI)
